# Laboratory results taken from patent US9663513B2, “Pyrimidine PDE10 inhibitors” (Merck Sharp & Dohme Corp., priority 2012, dated 2017).
# Target: human PDE10A2 (Homo sapiens (Human), UniProt Q9Y233)
# Test: PDE10 fluorescence polarization (IMAP FP) inhibition assay
# Assay type: biochemical
# Settings: human PDE10A2 from transfected AD293 cells; FAM-labeled cAMP 50 nM; apparent inhibition constant; read-out: PDE10A Ki
# Method in brief: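 Cytoplasmic lysate of AD293 cells transiently expressing human PDE10A2 (enzyme level giving 20% conversion) incubated with 50 nM FAM-cAMP in pH 7.2 Tris/MgCl2 buffer, 30 min at room temperature. IMAP binding solution added, FP read after ≥1 h; 10-point 3-fold compound titrations fitted to a four-parameter equation.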
# human PDE10A2, sequence (Q9Y233 267-1055): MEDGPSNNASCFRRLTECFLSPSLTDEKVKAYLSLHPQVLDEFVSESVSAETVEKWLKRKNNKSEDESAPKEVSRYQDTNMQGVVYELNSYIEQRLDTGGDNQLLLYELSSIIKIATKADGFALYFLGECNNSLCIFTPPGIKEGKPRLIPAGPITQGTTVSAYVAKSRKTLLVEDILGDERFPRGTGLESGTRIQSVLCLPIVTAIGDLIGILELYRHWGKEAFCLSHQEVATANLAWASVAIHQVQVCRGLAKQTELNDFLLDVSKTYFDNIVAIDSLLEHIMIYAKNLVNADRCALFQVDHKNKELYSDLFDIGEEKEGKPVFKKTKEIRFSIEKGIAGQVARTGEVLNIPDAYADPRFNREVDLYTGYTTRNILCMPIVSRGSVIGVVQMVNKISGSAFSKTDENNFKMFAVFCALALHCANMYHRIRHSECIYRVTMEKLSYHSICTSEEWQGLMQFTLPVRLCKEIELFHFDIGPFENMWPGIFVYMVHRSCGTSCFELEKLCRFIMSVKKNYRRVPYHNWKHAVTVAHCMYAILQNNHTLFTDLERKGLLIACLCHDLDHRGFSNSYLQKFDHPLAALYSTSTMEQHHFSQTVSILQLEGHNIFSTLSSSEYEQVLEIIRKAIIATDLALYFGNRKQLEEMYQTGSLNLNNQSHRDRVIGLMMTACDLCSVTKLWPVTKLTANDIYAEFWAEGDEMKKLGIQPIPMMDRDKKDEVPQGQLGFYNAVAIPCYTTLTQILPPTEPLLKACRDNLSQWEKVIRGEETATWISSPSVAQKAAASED
row,SMILES,Ki
1,"Cc1ccc([C@H]2C[C@@H]2COc2nc(C)ncc2[C@H]2CC[C@](C)(O)CC2)nc1 [Example 213, (trans)1-Methyl-4-(2-methyl-4-(((1S,2S)-2-(5-methylpyridin-2-yl)cyclopropyl)methoxy)pyrimidin-5-yl)cyclohexanol]",6.86 nM
2,"Cc1ccc([C@H]2C[C@@H]2COc2nc(C)ncc2-c2ccncc2C(F)(F)F)nc1 [Example 17, 2-methyl-4-(((1S,2S)-2-(5-methylpyridin-2-yl)cyclopropyl)methoxy)-5-(3-(trifluoromethyl)pyridin-4-yl)pyrimidine]",0.59 nM
3,"Cc1ncc([C@@H]2CCC3(C[C@H]2O)OCCO3)c(OC[C@H]2C[C@@H]2c2ccc3ccccc3n2)n1 [Example 205, (7R,8S)-8-(2-methyl-4-(((1S,2S)-2-(quinolin-2-yl)cyclopropyl)methoxy)pyrimidin-5-yl)-1,4-dioxaspiro[4.5]decan-7-ol]",7.08 nM
4,"Cc1ccc([C@H]2C[C@@H]2COc2nc(C)ncc2-c2cn(C)nc2C(F)F)nc1 [Example 125, 5-(3-(difluoromethyl)-1-methyl-1H-pyrazol-4-yl)-2-methyl-4-(((1S,2S)-2-(5-methylpyridin-2-yl)cyclopropyl)methoxy)pyrimidine]",0.4 nM
5,"Cc1ccc(-c2cnc(C)nc2OC[C@H]2C[C@@H]2c2ccc3ccccc3n2)cn1 [Example 42, 2-((1S,2S)-2-((2-methyl-5-(6-methylpyridin-3-yl)pyrimidin-4-yloxy)methyl)cyclopropyl)quinoline]",0.02 nM
6,"Cc1ncc([C@H]2CC[C@H](O)CC2)c(OC[C@H]2C[C@H]2c2ccc3ccccc3n2)n1 [Example 192, Trans-4-(2-methyl-4-(((1S,2R)-2-(quinolin-2-yl)cyclopropyl)methoxy)pyrimidin-5-yl)cyclohexanol]",0.01 nM
7,"COc1ccc([C@H]2C[C@@H]2COc2nc(C)ncc2-c2cn(C)oc2=O)nc1 [Example 243, 4-(4-(((1S,2S)-2-(5-methoxypyridin-2-yl)cyclopropyl)methoxy)-2-methylpyrimidin-5-yl)-2-methylisoxazol-5(2H)-one]",6.59 nM

# Further lines, results first:
row,Ki,SMILES
1,10.3 nM,"COc1ccc([C@H]2C[C@@H]2COc2nc(C)ncc2-c2ccc(C)nn2)nc1 [Example 102, 3-(4-(((1S,2S)-2-(5-methoxypyridin-2-yl)cyclopropyl)methoxy)-2-methylpyrimidin-5-yl)-6-methylpyridazine]"
2,4.78 nM,"COc1ccc([C@H]2C[C@@H]2COc2nc(C)ncc2-c2ccc(OC(CO)CO)nc2)nc1 [Example 71, 2-(5-(4-(((1S,2S)-2-(5-methoxypyridin-2-yl)cyclopropyl)methoxy)-2-methylpyrimidin-5-yl)pyridin-2-yloxy)propane-1,3-diol]"
3,0.77 nM,"CCn1nnc(-c2ccc(-c3cnc(C)nc3OC[C@H]3C[C@@H]3c3ccc(OC)cn3)cn2)n1 [Example 232, 5-(6-(2-ethyl-2H-tetrazol-5-yl)pyridin-3-yl)-4-(((1S,2S)-2-(5-methoxypyridin-2-yl)cyclopropyl)methoxy)-2-methylpyrimidine]"
4,1.08 nM,"COc1ccc([C@H]2C[C@@H]2COc2nc(C)ncc2-c2ccc(-c3nnnn3C)cc2)nc1 [Example 224, 4-(((1S,2S)-2-(5-methoxypyridin-2-yl)cyclopropyl)methoxy)-2-methyl-5-(4-(1-methyl-1H-tetrazol-5-yl)phenyl)pyrimidine]"
5,0.5 nM,"COc1ccc([C@H]2C[C@@H]2COc2nc(C)ncc2-c2ccc(OCC3CC3)nc2)nc1 [Example 72, 5-(6-(cyclopropylmethoxy)pyridin-3-yl)-4-(((1S,2S)-2-(5-methoxypyridin-2-yl)cyclopropyl)methoxy)-2-methylpyrimidine]"
6,29.9 nM,"COc1ccc([C@H]2C[C@@H]2COc2nc(C)ncc2-c2noc(CO)n2)nc1 [Example 256, (3-(4-(((1S,2S)-2-(5-methoxypyridin-2-yl)cyclopropyl)methoxy)-2-methylpyrimidin-5-yl)-1,2,4-oxadiazol-5-yl)methanol]"
7,0.05 nM,"CCc1ccc([C@H]2C[C@@H]2COc2nc(C)ncc2-c2ccc(C(C)(C)O)nc2)nc1 (single isomer, unassigned) [Example 181]"
